In patent publication US20230357261A1, “ARYL HYDROCARBON RECEPTOR LIGANDS AND THEIR ANALOGUES FOR THE PREVENTION AND TREATMENT OF INFLAMMATORY DISORDERS” (The Johns Hopkins University, priority 2020, published 2023):
“Also recorded” adds a separate entry of the source.

How the values were obtained:
[1] = test system: TLR4; test: TLR4 signaling in mouse ileal enteroids (LPS-induced Tnf-a qRT-PCR); assay type: cell-based; settings: I3C or breast milk pre-treatment, LPS 50 μg/mL
Procedure: (§1) Primary intestinal crypt cultures (enteroids) were generated from the ileum of neonatal (p7-p11) wild type and Ahr′ mice at as described, Neal et al., 2012, and maintained in Matrigel (Corning). The enteroids were digested and passed using TrypLE Express (Gibco) weekly, and used between passage 3 and 10 for all experiments. The enteroids were pre-treated with I3C ([…], 12 h), A18 (20 μM, 12 h) or human breast milk (100 μL/mL, Innovative Research, prepared by 5-minute-cenrifugation at 12,000 g and then filtration of supernatant through a 0.22-μm filter) and then treated with LPS (50 μg/mL) for 4 hours for further analysis.
(§2) Primary intestinal crypt cultures (enteroids) were generated from the ileum of neonatal (p7-p11) mice at as described, Neal et al., 2012, and maintained in Matrigel (Corning). The enteroids were digested and passed using TrypLE Express (Gibco) weekly, and used between passage 3 and 10 for all experiments. The enteroids were pre-treated with tested compound (40 uM, overnight) and then treated with LPS (50 μg/mL) for 6 hours for further analysis.
(§3) Total RNA was isolated using the RNeasy mini kit (Qiagen) and complementary DNA was synthesized from 0.5 μg RNA using QuantiTect Reverse Transcription kit (Qiagen) following the manufacturer's protocols. The mRNA quantification was performed on the Bio-Rad CFX96 Real-Time System (Bio-Rad) using iTaq™ universal SYBR® Green supermix (Bio-Rad) and the primers listed in Table 2. The relative mRNA expression levels were normalized against the expression of the housekeeping gene ribosomal protein lateral stalk subunit P0 (Rplp0).

[2] = test system: TLR4; test: TLR4 signaling and expression in human ileal explant culture (LPS); assay type: cell-based; settings: 200 μM I3C or 20 μM A18; LPS 50 μg/mL for 6 hours
Excerpt: (§4) De-identified human ileal samples were collected via waiver of consent from the Office of Human Subjects Research Review Boards at Johns Hopkins University (IRB00094036), during surgery for NEC or at the time of stoma closure. For RNA isolation and qRT-PCR analysis, fresh samples were snapfrozen in liquid nitrogen immediately. For human explant culture, fresh ileum samples from NEC patients or patient undergoing stoma re-anastomosis were washed with sterile phosphate-buffered saline containing gentamycin (5 μg/mL), minced into 2- to 4-mm diameter pieces, and then cultured in Dulbecco's modified Eagle growth medium supplemented with 10% fetal bovine serum, 4 μg/mL human recombinant insulin and 100 μg/mL Primocin. Human ilea explant cultures were then pre-treated with 200 μM I3C or 20 μM A18 for 15 minutes, and then with 50 μg/mL LPS for 6 hours, then processed for total RNA isolation followed by qRT-PCR.
as §3, with “1.” for “2.”, “(Rplp0). For microRNA isolation, freshly harvested, snap-frozen ileal tissue was subjected to total RNA isolation using the RNeasy plus universal mini kit (Qiagen) and miRNA was quantified using miScript PCR starter kit (Qiagen) following the manufacturer's protocols. The relative miRNA expression levels were normalized against the expression of housekeeping miRNA miR-191.” for “(Rplp0).”

[3] = test system: AHR; test: AHR activation in mouse ileal enteroids (Cyp1a1 qRT-PCR); assay type: cell-based; parameters: Cyp1a1 expression (AHR activation) in enteroids: dose or concentration left out as unconfirmed
Procedure: as §1, §2, §3

[4] = test system: AHR; test: AHR activation in human ileal explant culture (Cyp1a1 qRT-PCR); assay type: cell-based; settings: 200 μM I3C or 20 μM A18, 15 minutes pre-treatment then 6 hours
Excerpt: as §4, with “Human ilea explant cultures were then pre-treated with 200 μM I3C or 20 μM A18 for 15 minutes, and then with 50 μg/mL LPS for 6 hours, then processed for total RNA isolation followed by qRT-PCR.” left out
Total RNA was isolated using the RNeasy mini kit (Qiagen) and complementary DNA was synthesized from 0.5 μg RNA using QuantiTect Reverse Transcription kit (Qiagen) following the manufacturer's protocols. The mRNA quantification was performed on the Bio-Rad CFX96 Real-Time System (Bio-Rad) using iTaq™ universal SYBR® Green supermix (Bio-Rad) and the primers listed in Table 1. […] For microRNA isolation, freshly harvested, snap-frozen ileal tissue was subjected to total RNA isolation using the RNeasy plus universal mini kit (Qiagen) and miRNA was quantified using miScript PCR starter kit (Qiagen) following the manufacturer's protocols. […]

[5] = test system: miR-146b, miR-223 and let-7i; test: Tlr4 regulatory microRNAs in mouse ileum; assay type: in vivo; settings: I3C 25 mg/kg body weight/day for 24 hours
Procedure: (§5) Total RNA was isolated using the RNeasy mini kit (Qiagen) and complementary DNA was synthesized from 0.5 μg RNA using QuantiTect Reverse Transcription kit (Qiagen) following the manufacturer's protocols. The mRNA quantification was performed on the Bio-Rad CFX96 Real-Time System (Bio-Rad) using iTaq™ universal SYBR® Green supermix (Bio-Rad) and the primers listed in Table 1. The relative mRNA expression levels were normalized against the expression of the housekeeping gene ribosomal protein lateral stalk subunit P0 (Rplp0). For microRNA isolation, freshly harvested, snap-frozen ileal tissue was subjected to total RNA isolation using the RNeasy plus universal mini kit (Qiagen) and miRNA was quantified using miScript PCR starter kit (Qiagen) following the manufacturer's protocols. The relative miRNA expression levels were normalized against the expression of housekeeping miRNA miR-191.

[6] = test system: AHR; test: AHR activation in IEC-6 enterocytes (Cyp1a1 expression); assay type: cell-based, rat; settings: exposed to amniotic fluid, breast milk and serum harvested from pregnant mice administered I3C vs control diet
Procedure: The intestinal epithelial cells line IEC-6 (ATCC CRL-1592) was stably transduced with lentiviral particles containing Cignal Lenti XRE Reporter (luc) (Qiagen). Cells were treated serially with individual chemicals contained within the Johns Hopkins Drug Library (JHDL), which contains a series of FDA-approved drugs, Chong et al., 2006, (kindly provided by Dr. Jun O. Liu, Johns Hopkins University) at 10 μM for 24 hours, and the luciferase activity was quantified using the SpectraMax M3 (Molecular Devices).
as §5

[7] = test system: AHR; test: AHR activation in mouse intestine in vivo (Cyp1a1 expression by qRT-PCR); settings: for expression of the AHR response gene Cyp1a1 in the small intestine: maternal diet with I3C throughout pregnancy, 25 mg/kg body weight/day
Procedure: Hits were validated for activation of AHR signaling by oral gavage into neonatal C57/B16 mice (p11), and measuring the expression of the AHR activation reporter Cyp1a1 by qRT-PCR in the intestinal mucosa 24 hours later. The lead compound from these studies is herein labelled “A18”. Additionally, the mice were subjected to hypoxia (5% 02-95% N2) for 10 min in a hypoxia chamber (Billups-Rothenberg) twice daily for 4 days. […] To test the protective effect of breast milk on AHR signaling a NEC, human breast milk (Innovative Research) was supplemented to the formula at the final concentration of 5%. Endotoxemia was induced in neonatal mouse pups (p11) by administering 5 mg/kg lipopolysaccharides (LPS) via intraperitoneal injection, and ileal samples were harvested 6 hours after LPS treatments. […] I3C and A18 were administered to the pregnant mother daily until the offspring were studied further for experimental NEC or endotoxemia as above. […] The mRNA quantification was performed on the Bio-Rad CFX96 Real-Time System (Bio-Rad) using iTaqTM universal SYBR® Green supermix (Bio-Rad) and the primers listed in Table 1. The relative mRNA expression levels were normalized against the expression of the housekeeping gene ribosomal protein lateral stalk subunit P0 (Rplp0). For microRNA isolation, freshly harvested, snap-frozen ileal tissue was subjected to total RNA isolation using the RNeasy plus universal mini kit (Qiagen) and miRNA was quantified using miScript PCR starter kit (Qiagen) following the manufacturer's protocols. The relative miRNA expression levels were normalized against the expression of housekeeping miRNA miR-191.

With `OCc1c[nH]c2ccccc12` [I3C, indole-3-carbinol] the “LPS-induced Tnfa expression in enteroids” value ([1]; Ahr^−/− enteroids) was “not”, the “LPS-induced Tnfa expression in enteroids” value ([1]; wild-type enteroids) was “significantly reduced the LPS-mediated induction of Tnfa” and the “LPS-induced Tnf-a expression in human intestinal explant cultures” value [2] was “reduced LPS-induced Tnf-a expression”. For the same molecule, the “Cyp1a1 expression (AHR activation) in enteroids” value ([3]; Ahr^−/− enteroids, I3C or human breast milk) was “not”, the “Cyp1a1 expression (AHR activation) in enteroids” value ([3]; wild-type enteroids, I3C (12 h) or human breast milk (100 μL/mL)) was “induced the expression of Cyp1a1” and the “Cyp1a1 expression in human intestinal explant cultures” value [4] was “induced the expression of Cyp1a1”. The “expression in the ileum of microRNAs miR-146b, miR-223 and let-7i” value ([5]; Ahr^−/− mice) was “did not increase the expression of these microRNAs”, the “expression in the ileum of microRNAs miR-146b, miR-223 and let-7i” value ([5]; wild type mice) was “significantly upregulated” and the “Cyp1a1 expression in cultured IEC-6 enterocytes” value [6] was “significantly increased the expression of Cyp1a1”. The “Cyp1a1 expression in the neonatal intestinal epithelium (ileum)” value ([7]; Ahr^Δlys mice, NEC model, I3C 25 mg/kg body weight/day for 4 days) was “induced the expression Cyp1a1; also recorded: moderate increase”, the “Cyp1a1 expression in the intestinal epithelium” value ([7]; Ahr^−/− newborn mice, fed I3C 25 mg/kg/day or A18 300 mg/kg/day) was “did not induce Cyp1a1” and the “Cyp1a1 expression in the intestinal epithelium” value ([7]; Il22^−/− mice, NEC model, I3C 25 mg/kg body weight/day for 4 days) was “induced the expression of Cyp1a1”. For the same molecule, the “expression of the AHR response gene Cyp1a1 in the small intestine” value ([7]; fetus at e17.5) was “induced the expression of the AHR response gene Cyp1a1”, the “Cyp1a1 expression in suckling pups” value ([7]; p11, I3C administered to the lactating mother) was “induced Cyp1a1 expression” and the “expression of the AHR response gene Cyp1a1 in the small intestine” value ([7]; pregnant mother) was “induced the expression of the AHR response gene Cyp1a1”. The “Cyp1a1 expression in the intestinal epithelium” value ([7]; wild-type newborn (p11) mice, fed I3C 25 mg/kg/day or A18 300 mg/kg/day) was “induced Cyp1a1 expression” and the “Cyp1a1 expression in the neonatal intestinal epithelium (ileum)” value ([7]; wildtype mice, NEC model, I3C 25 mg/kg body weight/day for 4 days) was “induced the expression Cyp1a1; also recorded: multifold induction”.
